Our source for the IC50 values is patent US9994594B2, “Inhibitors of arginase and their therapeutic applications” (MARS, INCORPORATED, priority 2010, dated 2018).

One experiment addresses T1, arginase II (ARG II) (Homo sapiens, UniProt P78540).
T1 sequence (P78540 23-354): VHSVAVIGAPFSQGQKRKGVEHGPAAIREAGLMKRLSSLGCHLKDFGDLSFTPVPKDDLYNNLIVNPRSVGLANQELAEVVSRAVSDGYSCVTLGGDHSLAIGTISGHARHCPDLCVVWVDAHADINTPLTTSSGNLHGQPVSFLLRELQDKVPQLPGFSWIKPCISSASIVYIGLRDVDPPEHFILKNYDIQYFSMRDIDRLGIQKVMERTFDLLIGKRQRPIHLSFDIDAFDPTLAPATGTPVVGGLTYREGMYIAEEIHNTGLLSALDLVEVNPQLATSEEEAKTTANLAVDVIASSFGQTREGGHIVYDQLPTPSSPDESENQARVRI
Kind of experiment: Inhibition of arginase II, spectrophotometric urea assay at 530 nm. In kind it is biochemical. The procedure:
(§1) The assay established the concentration of inhibitor that is required to reduce arginase activity by 50% (IC50).
(§2) Inhibition of arginase I (ARG I) and arginase II (ARG II) by Formula I and Formula II compounds is followed spectrophotometrically at 530 nm. The compound to be tested is dissolved in DMSO at an initial concentration 50-fold greater than its final concentration in the cuvette. 10 μl of the stock solution is diluted in 90 μl of the assay buffer that comprises 0.1M sodium phosphate buffer containing 130 mM NaCl, pH 7.4, to which is added ovalbumin (OVA) at a concentration of 1 mg/ml. Solutions of arginase I and II are prepared in 100 mM sodium phosphate buffer, pH 7.4 containing 1 mg/ml of OVA to give an arginase stock solution at a final concentration of 100 ng/ml.
(§3) To each well of a 96-well microtiter plate is add 40 μl of enzyme, 10 μl of an inventive compound and 10 μl of enzyme substrate (L-arginine+manganese sulfate). For wells that are used as positive controls, only the enzyme and its substrate are added, while wells used as negative controls contain only manganese sulfate.
(§4) After incubating the microtiter plate at 37° C. for 60 minutes, 150 μl of a urea reagent obtained by combining equal proportions (1:1) of reagents A and B is added to each well of the microtiter plate to stop the reaction. The urea reagent is made just before use by combining Reagent A (10 mM o-phthaldialdehyde, and 0.4% polyoxyethylene (23) lauryl ether (w/v) in 1.8 M sulfuric acid) with Reagent B (1.3 mM primaquine diphosphate, 0.4% polyoxyethylene (23) lauryl ether (w/v), 130 mM boric acid in 3.6 M sulfuric acid). After quenching the reaction mixture, the microtiter plate is allowed to stand for an additional 10 minutes at room temperature to allow color development. The inhibition of arginase is computed by measuring the optical density (OD) of the reaction mixture at 530 nm and normalizing the OD value to percent inhibition observed in the control. The normalized OD is then used to generate a dose-response curve by plotting the normalized OD values against log [concentration] and using regression analysis to compute the IC50 values.

The next experiment deals with T2, human arginase I (ARG I) (Homo sapiens, UniProt P05089).
T2 sequence (P05089 1-322): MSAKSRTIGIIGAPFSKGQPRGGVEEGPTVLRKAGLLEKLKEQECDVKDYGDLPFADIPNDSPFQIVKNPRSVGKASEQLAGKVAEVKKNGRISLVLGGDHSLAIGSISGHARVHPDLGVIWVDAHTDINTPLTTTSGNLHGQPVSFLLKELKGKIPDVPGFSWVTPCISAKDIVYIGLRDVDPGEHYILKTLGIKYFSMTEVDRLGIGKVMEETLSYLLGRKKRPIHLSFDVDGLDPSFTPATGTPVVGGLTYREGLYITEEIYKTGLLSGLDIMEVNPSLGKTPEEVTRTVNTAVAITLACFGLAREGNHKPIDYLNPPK
Description: Inhibition of arginase I, spectrophotometric urea assay at 530 nm. The conditions noted are these: read-out: Potency (ARG I). In kind it is biochemical. The procedure:
as §1, §2, §3, §4

The mark [1] stands for this setting: Formula II compounds, Table 2-A, read-out: Potency (ARG).
[2] abbreviates: Formula II compounds, Table 2-A.
The mark [3] stands for this setting: Formula I compounds, Table 2, read-out: Potency (ARG II).

pIC50: −log10 of the molar value. Counter-ions that a name gives are not always drawn. Like-named read-outs stand apart in the source and are kept apart here. Bounds are passed on as bounds.

With `NC(CCCCB(O)O)(C(=O)O)C1CCN(Cc2cccc(OC(F)(F)F)c2)CC1` (stereo not shown) [Example 103-A, 2-amino-6-borono-2-(1-(3-(trifluoromethoxy)benzyl)piperidin-4-yl)hexanoic acid dihydrochloride], the pIC50 at arginase II (ARG II) (setting [1]) and at human arginase I (ARG I) (setting [2]) was 6.60 to 10.00 in each case.
For `CC1(C)CCN(CCC(N)(CCCCB(O)O)C(=O)O)CC1` (stereo not shown) [compound 128, 2-amino-6-borono-2-(2-(4,4-dimethylpiperidin-1-yl)ethyl)hexanoic acid dihydrochloride], the pIC50 at arginase II (ARG II) (setting [3]) is 5.70 to 6.00; at human arginase I (ARG I) (Formula I compounds, Table 2), 6.00 to 6.60.
On to `CC(C)n1cncc1CC(N)(CCCCB(O)O)C(=O)O` (stereo not shown) [compound 107, 2-amino-6-borono-2-((1-isopropyl-1H-imidazol-5-yl)methyl)hexanoic acid dihydrochloride], for which the pIC50 at arginase II (ARG II) (setting [3]) was less than 5.30; on human arginase I (ARG I) (Formula I compounds, Table 2), less than 5.30.
Consider `NCCN(CCC(N)(CCCCB(O)O)C(=O)O)Cc1ccccc1` (stereo not shown) [compound 73, 2-amino-2-(2-((2-aminoethyl)(benzyl)amino)ethyl)-6-boronohexanoic acid trihydrochloride], for which the pIC50 on arginase II (ARG II) (setting [3]) was 6.00 to 6.60; on human arginase I (ARG I) (Formula I compounds, Table 2), 6.60 to 10.00.
With `NC(CCCCB(O)O)(C(=O)O)C(O)C1CCNCC1` (stereo not shown) [compound 109, 2-amino-6-borono-2-(hydroxy(piperidin-4-yl)methyl)hexanoic acid dihydrochloride], the pIC50 on arginase II (ARG II) (setting [3]) was less than 5.30; on human arginase I (ARG I) (Formula I compounds, Table 2), 5.30 to 5.70.
In the case of `COc1ccc(CCN(C)CC[C@](N)(CCCCB(O)O)C(=O)O)cc1OC` [compound 6, (R)-2-amino-6-borono-2-(2-((3,4-dimethoxyphenethyl)(methyl)amino)ethyl)hexanoic acid dihydrochloride], the pIC50 is 5.70 to 6.00 at arginase II (ARG II) (setting [3]) and 6.00 to 6.60 at human arginase I (ARG I) (Formula I compounds, Table 2).
For the molecule `NC(CCCCB(O)O)(CCN1CCC(F)(F)C1)C(=O)O` (stereo not shown) [compound 44, 2-amino-6-borono-2-(2-(3,3-difluoropyrrolidin-1-yl)ethyl)hexanoic acid dihydrochloride], the pIC50 was less than 5.30 at arginase II (ARG II) (setting [3]) and less than 5.30 on human arginase I (ARG I) (Formula I compounds, Table 2).
For the molecule `NC(CCCCB(O)O)(C(=O)O)C(O)CCC(F)(F)F` (stereo not shown) [compound 111, 2-amino-2-(4-boronobutyl)-6,6,6-trifluoro-3-hydroxyhexanoic acid hydrochloride], the pIC50 on arginase II (ARG II) (setting [3]) is 5.30 to 5.70; on human arginase I (ARG I) (Formula I compounds, Table 2), 5.30 to 5.70.
Take `NC(CCCCB(O)O)(C(=O)O)[C@H]1C[C@@H](N)C1` (stereo partly drawn) [Example 81-A, cis-2-amino-2-(3-aminocyclobutyl)-6-boronohexanoic acid dihydrochloride]: the pIC50 on arginase II (ARG II) (setting [1]) and at human arginase I (ARG I) (setting [2]) was 6.60 to 10.00 in each case.
In the case of `NC1CCC(C(N)(CCCCB(O)O)C(=O)O)CC1` (stereo not shown) [20-A, 2-amino-2-(4-aminocyclohexyl)-6-boronohexanoic acid dihydrochloride], the pIC50 on arginase II (ARG II) (setting [1]) and on human arginase I (ARG I) (setting [2]) was 6.00 to 6.60 each time.
For `CC(C)C(=O)NCCC(N)(CCCCB(O)O)C(=O)O` (stereo not shown) [compound 120, 2-amino-6-borono-2-(2-isobutyramidoethyl)hexanoic acid hydrochloride], the pIC50 at arginase II (ARG II) (setting [3]) is 5.30 to 5.70; on human arginase I (ARG I) (Formula I compounds, Table 2), 5.70 to 6.00.
Turning to `COc1ccc(OCCC(N)(CCCCB(O)O)C(=O)O)cc1` (stereo not shown) [compound 93, 2-amino-6-borono-2-(2-(4-methoxyphenoxy)ethyl)hexanoic acid hydrochloride], the pIC50 at arginase II (ARG II) (setting [3]) is less than 5.30; at human arginase I (ARG I) (Formula I compounds, Table 2), less than 5.30.
`NC(CCCCB(O)O)(CCN1CCc2ccsc2C1)C(=O)O` (stereo not shown) [compound 62, 2-amino-6-borono-2-(2-(4,5-dihydrothieno[2,3-c]pyridin-6(7H)-yl)ethyl)hexanoic acid dihydrochloride]: the pIC50 on arginase II (ARG II) (setting [3]) was 5.70 to 6.00; on human arginase I (ARG I) (Formula I compounds, Table 2) it was 6.00 to 6.60.
Taken in the same sequence, the figures for `CN(C)C(=O)[C@@H]1CCCN1CCC(N)(CCCCB(O)O)C(=O)O` (stereo partly drawn) [compound 54, 2-amino-6-borono-2-(2-((S)-2-(dimethylcarbamoyl)pyrrolidin-1-yl)ethyl)hexanoic acid dihydrochloride] were less than 5.30 and less than 5.30.
Taken in the same sequence, the figures for `CN(CC[C@](N)(CCCCB(O)O)C(=O)O)C[C@@H](O)c1cccc(O)c1` [compound 12, (R)-2-amino-6-borono-2-(2-(((S)-2-hydroxy-2-(3-hydroxyphenyl)ethyl)(methyl)amino)ethyl)hexanoic acid dihydrochloride] were 6.60 to 10.00 and 6.60 to 10.00.
`NC(CCCCB(O)O)(C(=O)O)C(O)C1CNC1` (stereo not shown) [compound 113, 2-amino-2-(azetidin-3-yl(hydroxy)methyl)-6-boronohexanoic acid dihydrochloride]: the pIC50 was 6.00 to 6.60 on arginase II (ARG II) (setting [3]) and 6.60 to 10.00 on human arginase I (ARG I) (Formula I compounds, Table 2).
On to `NC(CCCCB(O)O)(CC1CN(CCc2ccc(Cl)cc2Cl)C1)C(=O)O` (stereo not shown) [compound 118, 2-amino-6-borono-2-((1-(2,4-dichlorophenethyl)azetidin-3-yl)methyl)hexanoic acid dihydrochloride], for which the pIC50 at arginase II (ARG II) (setting [3]) was 6.00 to 6.60; at human arginase I (ARG I) (Formula I compounds, Table 2), 6.00 to 6.60.
`NC(CCCCB(O)O)(CCN1CCc2ccccc2C1)C(=O)O` (stereo not shown) [compound 36, 2-amino-6-borono-2-(2-(3,4-dihydroisoquinolin-2(1H)-yl)ethyl)hexanoic acid dihydrochloride]: the pIC50 at arginase II (ARG II) (setting [3]) was 5.70 to 6.00; at human arginase I (ARG I) (Formula I compounds, Table 2), 6.00 to 6.60.
On to `NC(CCCCB(O)O)(C(=O)O)C1CCN(Cc2ccc3ccccc3c2)CC1` (stereo not shown) [Example 99-A, 2-amino-6-borono-2-(1-(naphthalen-2-ylmethyl)piperidin-4-yl)hexanoic acid dihydrochloride], for which the pIC50 at arginase II (ARG II) (setting [1]) and on human arginase I (ARG I) (setting [2]) was 6.60 to 10.00 each time.
Turning to `COc1ccc(CN(C)CCC(N)(CCCCB(O)O)C(=O)O)cc1` (stereo not shown) [compound 27, 2-amino-6-borono-2-(2-((4-methoxybenzyl)(methyl)amino)ethyl)hexanoic acid dihydrochloride], the pIC50 at arginase II (ARG II) (setting [3]) is 5.70 to 6.00; on human arginase I (ARG I) (Formula I compounds, Table 2), 5.70 to 6.00.
On to `NC(CCCCB(O)O)(CCCN1CCCCC1)C(=O)O` (stereo not shown) [compound 147, 2-amino-6-borono-2-(3-(piperidin-1-yl)propyl)hexanoic acid dihydrochloride], for which the pIC50 was 6.00 to 6.60 on arginase II (ARG II) (setting [3]) and 6.60 to 10.00 on human arginase I (ARG I) (Formula I compounds, Table 2).
`NC(CCCCB(O)O)(C(=O)O)C1CCCNCC1` (stereo not shown) [Example 72-A, 2-amino-2-(azepan-4-yl)-6-boronohexanoic acid dihydrochloride]: the pIC50 is 6.00 to 6.60 on arginase II (ARG II) (setting [1]) and 6.60 to 10.00 on human arginase I (ARG I) (setting [2]).
Consider `NC(CCCCB(O)O)(CCN1CCCC1)C(=O)O` (stereo not shown) [compound 16, 2-amino-6-borono-2-(2-(pyrrolidin-1-yl)ethyl)hexanoic acid], for which the pIC50 on arginase II (ARG II) (setting [3]) is 5.70 to 6.00; on human arginase I (ARG I) (Formula I compounds, Table 2), 6.00 to 6.60.
On to `NC(CCCCB(O)O)(C(=O)O)[C@H]1C[C@@H](NCc2ccccc2)C1` (stereo partly drawn) [Example 74-A, cis-2-amino-2-(3-(benzylamino)cyclobutyl)-6-boronohexanoic acid dihydrochloride], for which the pIC50 at arginase II (ARG II) (setting [1]) and at human arginase I (ARG I) (setting [2]) was 6.60 to 10.00 each time.
For `NC(CCCCB(O)O)(CCNCCCc1cc(C(F)(F)F)ccc1Cl)C(=O)O` (stereo not shown) [compound 64, 2-amino-6-borono-2-(2-(3-(2-chloro-5-(trifluoromethyl)phenyl)propylamino)ethyl)hexanoic acid dihydrochloride], the pIC50 on arginase II (ARG II) (setting [3]) is 6.60 to 10.00; at human arginase I (ARG I) (Formula I compounds, Table 2), 6.60 to 10.00.
Consider `COc1ccc(CC2(NCCC(N)(CCCCB(O)O)C(=O)O)CC2)cc1` (stereo not shown) [compound 61, 2-amino-6-borono-2-(2-(1-(4-methoxybenzyl)cyclopropylamino)ethyl)hexanoic acid], for which the pIC50 at arginase II (ARG II) (setting [3]) is 5.70 to 6.00; at human arginase I (ARG I) (Formula I compounds, Table 2) it was 6.00 to 6.60.
